Experimental data published in US20160297830A1, “NOVEL COMPOUNDS USEFUL FOR THE TREATMENT OF BACTERIAL INFECTIOUS DISEASES” (GALAPAGOS NV, priority 2013, published 2016).
Values after ≈ are worked out from the molar mass of the structure shown. Like-named read-outs stand apart in the source and are kept apart here.

Columns and labels:
[1] = tested on: S. aureus Sa1 ATCC 13709; assay: microbe, parasite or virus in culture; format: cell-based; details: for MIC: Staphylococcus aureus
[2] = tested on: S. aureus Sa26 ATCC 25923; assay: Antibacterial activity assay (MIC), S. aureus Sa26; format: cell-based; details: for MIC: Staphylococcus aureus
[3] = tested on: S. aureus Sa4 NCTC 6571; assay: Antibacterial activity assay (MIC), S. aureus Sa4; format: cell-based; details: for MIC: Staphylococcus aureus
[4] = tested on: S. aureus Sa2 clinical strain NCIMB 41953, MRSA; assay: microbe, parasite or virus in culture; format: cell-based; details: for MIC Sa2: S. aureus Sa2 clinical strain, MRSA, Erythromycin Resistant, Fluoroquinolone resistant; for MIC: Staphylococcus aureus, read-out: MIC Sa2
[5] = tested on: H. influenza Hi47 clinical strain, Ampicillin Resistant; assay: organism not typed; format: cell-based; details: for MIC Hi47: H. influenza Hi47 clinical strain, Ampicillin Resistant; for MIC: read-out: MIC Hi47
[6] = tested on: E. coli Ec1 ATCC 25922; assay: Antibacterial activity assay (MIC), E. coli Ec1; format: cell-based; details: for MIC: Escherichia coli
[7] = tested on: E. coli Ec50 efflux pump KO; assay: microbe, parasite or virus in culture; format: cell-based; details: for MIC Ec50 efflux pump KO: E. coli Ec50 efflux pump KO; for MIC: Escherichia coli, read-out: MIC Ec50 efflux pump KO
[8] = tested on: E. coli Ec113 efflux pump KO; assay: microbe, parasite or virus in culture; format: cell-based; details: for MIC Ec113 efflux pump KO: E. coli Ec113 efflux pump KO; for MIC: Escherichia coli, read-out: MIC Ec113 efflux pump KO
[9] = target: DNA Polymerase IIIα (DnaE) from Staphylococcus aureus (Staphylococcus aureus, UniProt Q6GG04); assay: biochemical
[10] = tested on: Methicillin Resistant S. aureus (MRSA); assay: Neutropenic mouse thigh infection model; details: Thigh Sa
[11] = tested on: H. influenza Hi3 ATCC 31517; assay: organism not typed; format: cell-based; details: read-out: MIC Hi3
[12] = tested on: H. influenza Hi10 clinical strain; assay: organism not typed; format: cell-based; details: read-out: MIC Hi10
[13] = tested on: H. influenza Hi106 ATCC 51907; assay: organism not typed; format: cell-based; details: read-out: MIC Hi106
[14] = S. aureus Sa1 ATCC 13709, sensitive strain, Mueller-Hinton Broth, 37° C.
[15] = S. aureus Sa26 ATCC 25923, sensitive strain, Mueller-Hinton Broth, 37° C.
[16] = S. aureus Sa4 NCTC 6571, sensitive strain
[17] = E. coli Ec1 ATCC 25922, sensitive strain
[18] = Study 1, 50 mg/kg SC BID, sample time 7 h PI
[19] = Study 2, 50 mg/kg SC BID, sample time 7 h PI
[20] = Study 3, 50 mg/kg SC BID, sample time 7 h PI
[21] = Study 4, 50 mg/kg SC BID, sample time 24 h PI
[22] = Study 5, 50 mg/kg SC BID, sample time 24 h PI
[23] = Study 6, 50 mg/kg SC BID, sample time 24 h PI
[24] = Study 7, 50 mg/kg SC BID, sample time 24 h PI
[25] = Study 8, 50 mg/kg SC QD, sample time 48 h PI
[26] = Study 9, 50 mg/kg SC BID, sample time 24 h PI
[27] = ATCC25923, read-out: MIC Sa26 + 10% SH
[28] = ATCC25923, read-out: MIC Sa26 + 50% SH
[29] = ATCC13709, S. aureus Sa1 ATCC 13709, sensitive strain, Mueller-Hinton Broth, 37° C., read-out: MIC Sa1
[30] = ATCC25923, read-out: MIC Sa26 + 10% SH, S. aureus Sa26 + 10% SH
[31] = ATCC25923, read-out: MIC Sa26 + 50% SH, S. aureus Sa26 + 50% SH
[32] = ATCC25923, S. aureus Sa26 ATCC 25923, sensitive strain, Mueller-Hinton Broth, 37° C., read-out: MIC Sa26
[33] = NCTC6571, S. aureus Sa4 NCTC 6571, sensitive strain, read-out: MIC Sa4
[34] = ATCC25922, E. coli Ec1 ATCC 25922, sensitive strain, read-out: MIC Ec1
[35] = Study 6, 25 mg/kg PO BID, sample time 24 h PI
[36] = Study 7, 15 mg/kg PO BID, sample time 24 h PI
[37] = Study 7, 50 mg/kg PO BID, sample time 24 h PI
[38] = Study 8, 50 mg/kg PO QD, sample time 48 h PI
[39] = Study 9, 50 mg/kg PO BID, sample time 24 h PI

Chain of DNA Polymerase IIIα (DnaE) from Staphylococcus aureus (Q6GG04 1-1022): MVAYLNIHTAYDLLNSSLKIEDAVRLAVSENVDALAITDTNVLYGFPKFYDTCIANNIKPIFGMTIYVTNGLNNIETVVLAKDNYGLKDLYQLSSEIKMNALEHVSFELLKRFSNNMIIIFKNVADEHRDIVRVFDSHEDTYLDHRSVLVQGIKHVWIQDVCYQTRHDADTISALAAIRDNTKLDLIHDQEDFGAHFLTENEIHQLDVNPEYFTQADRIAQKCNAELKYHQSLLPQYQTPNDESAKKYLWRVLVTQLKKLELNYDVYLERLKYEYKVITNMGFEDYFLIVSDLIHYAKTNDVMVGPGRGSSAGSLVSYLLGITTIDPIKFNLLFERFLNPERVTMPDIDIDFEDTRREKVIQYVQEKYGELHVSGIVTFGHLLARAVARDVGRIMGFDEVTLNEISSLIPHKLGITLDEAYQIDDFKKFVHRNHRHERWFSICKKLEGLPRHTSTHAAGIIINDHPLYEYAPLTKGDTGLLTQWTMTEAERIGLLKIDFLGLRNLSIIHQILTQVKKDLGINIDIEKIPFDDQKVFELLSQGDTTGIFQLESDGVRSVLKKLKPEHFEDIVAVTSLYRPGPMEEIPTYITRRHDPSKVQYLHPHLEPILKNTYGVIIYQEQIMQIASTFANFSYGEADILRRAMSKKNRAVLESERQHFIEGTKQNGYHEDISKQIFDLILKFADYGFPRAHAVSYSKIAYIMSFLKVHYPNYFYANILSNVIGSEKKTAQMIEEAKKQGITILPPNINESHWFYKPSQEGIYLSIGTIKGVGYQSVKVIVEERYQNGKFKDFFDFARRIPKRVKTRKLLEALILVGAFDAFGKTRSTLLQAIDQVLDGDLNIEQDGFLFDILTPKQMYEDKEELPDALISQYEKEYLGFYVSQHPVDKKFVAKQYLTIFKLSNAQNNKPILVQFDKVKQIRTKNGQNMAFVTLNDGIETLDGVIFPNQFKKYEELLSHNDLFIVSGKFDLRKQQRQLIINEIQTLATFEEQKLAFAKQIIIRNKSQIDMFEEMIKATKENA

Molecule: 8-O-4-Bromo-5-Chloro-1H-pyrrole-2′-carbonylbranimycin [Compound 35]
- MIC Sa1 [1, 14]: >64 µg/mL
- MIC Sa26 + 10% SH ([2]; S. aureus Sa26 + 10% SH): >64 µg/mL
- MIC Sa26 + 50% SH ([2]; S. aureus Sa26 + 50% SH): >64 µg/mL
- MIC Sa26 [2, 15]: >64 µg/mL
- MIC Sa4 [3, 16]: 64 µg/mL
- MIC Sa2 [4]: 64 µg/mL
- MIC Hi47 [5]: >64 µg/mL
- MIC Ec1 [6, 17]: >64 µg/mL
- MIC Ec50 efflux pump KO [7]: >64 µg/mL
- MIC Ec113 efflux pump KO [8]: 64 µg/mL
- IC50 semiquantitative scoring, S. aureus [9]: ** (key: ***: 0.001-1 μg/mL; **: 1.0-10 μg/mL; *: >10 μg/mL)

Molecule: 8-O-5-Bromo-4-Chloro-1H-pyrrole-2′-carbonylbranimycin [Compound 33]
- MIC Sa1 [1, 14]: >64 µg/mL
- MIC Sa26 + 10% SH ([2]; S. aureus Sa26 + 10% SH): >64 µg/mL
- MIC Sa26 + 50% SH ([2]; S. aureus Sa26 + 50% SH): >64 µg/mL
- MIC Sa26 [2, 15]: >64 µg/mL
- MIC Sa4 [3, 16]: 64 µg/mL
- MIC Sa2 [4]: 64 µg/mL
- MIC Hi47 [5]: >64 µg/mL
- MIC Ec1 [6, 17]: >64 µg/mL
- MIC Ec50 efflux pump KO [7]: >64 µg/mL
- MIC Ec113 efflux pump KO [8]: 6 µg/mL

Molecule: O=C(O)c1cn(C2CC2)c2cc(N3CCNCC3)c(F)cc2c1=O [Ciprofloxacin]
- Active [10, 18]: N
- Log reduction vs. untreated [10, 18]: −1.27
- Active [10, 19]: N
- Log reduction vs. untreated [10, 19]: −1.07
- Active [10, 20]: N
- Log reduction vs. untreated [10, 20]: 0.22
- Active [10, 21]: N
- Log reduction vs. untreated [10, 21]: −0.05
- Active [10, 22]: N
- Log reduction vs. untreated [10, 22]: −0.27
- Active [10, 23]: N
- Log reduction vs. untreated [10, 23]: −0.26
- Active [10, 24]: N
- Log reduction vs. untreated [10, 24]: −0.08
- Active [10, 25]: N
- Log reduction vs. untreated [10, 25]: −0.39
- Active [10, 26]: N
- Log reduction vs. untreated [10, 26]: −1.28

Molecule: COC[C@@H](O)[C@H]1OC(=O)[C@H](COC)[C@H]2C=C[C@H]3[C@H]4O[C@]2(/C(C)=C/[C@H]1C)[C@@H]3[C@H](O)[C@@H](C)[C@H]4OC(=O)c1cc(Cl)c[nH]1 [Compound 30, 8-O-4-Chloro-1H-pyrrole-2′-carbonylbaleomycin]
- MIC ([1]; ATCC13709, read-out: MIC Sa1): 16 µg/mL (≈ 27.6 µM)
- MIC ([2]; ATCC25923, read-out: MIC Sa26): 16 µg/mL (≈ 27.6 µM)
- MIC [2, 27]: 32 µg/mL
- MIC [2, 28]: 64 µg/mL
- MIC ([3]; NCTC6571, read-out: MIC Sa4): 16 µg/mL (≈ 27.6 µM)
- MIC [4]: 8 µg/mL (≈ 13.8 µM)
- MIC [11]: > 64 µg/mL
- MIC [12]: 64 µg/mL (≈ 110 µM)
- MIC [5]: 64 µg/mL (≈ 110 µM)
- MIC [13]: > 64 µg/mL
- MIC ([6]; ATCC25922, read-out: MIC Ec1): > 64 µg/mL
- MIC [7]: 16 µg/mL (≈ 27.6 µM)
- MIC [8]: 0.5 µg/mL (≈ 0.862 µM)

Molecule: COC[C@@H]1[C@@H](O)[C@@H]2[C@H]3C=C[C@@H]4[C@@H](COC)C(=O)O[C@H]([C@H](O)COC)[C@H](C)/C=C(\C)[C@@]24O[C@H]3[C@@H]1OC(=O)c1cc(Cl)c(Cl)[nH]1 [Compound 31, 8-O-4,5-Dichloro-1H-pyrrole-2′-carbonylbranimycin]
- MIC ([1]; ATCC13709, read-out: MIC Sa1): > 64 µg/mL
- MIC ([2]; ATCC25923, read-out: MIC Sa26): > 64 µg/mL
- MIC [2, 27]: > 64 µg/mL
- MIC [2, 28]: > 64 µg/mL
- MIC ([3]; NCTC6571, read-out: MIC Sa4): 64 µg/mL (≈ 99.3 µM)
- MIC [4]: 64 µg/mL (≈ 99.3 µM)
- MIC [11]: > 64 µg/mL
- MIC [12]: 16 µg/mL (≈ 24.8 µM)
- MIC [5]: 32 µg/mL (≈ 49.6 µM)
- MIC [13]: 32 µg/mL (≈ 49.6 µM)
- MIC ([6]; ATCC25922, read-out: MIC Ec1): > 64 µg/mL
- MIC [7]: > 64 µg/mL
- MIC [8]: 32 µg/mL (≈ 49.6 µM)

Molecule: COC[C@@H]1[C@@H](O)[C@@H]2[C@H]3C=C[C@@H]4[C@@H](COC)C(=O)O[C@H]([C@H](O)COC)[C@H](C)/C=C(\C)[C@@]24O[C@H]3[C@@H]1OC(=O)c1cc(F)c(F)[nH]1 [Compound 38, 8-O-4,5-Difluoro-1H-pyrrole-2′-carbonylbranimycin]
- MIC [1, 29]: 32 µg/mL (≈ 52.3 µM)
- MIC [2, 30]: > 64 µg/mL
- MIC [2, 31]: 64 µg/mL
- MIC [2, 32]: 64 µg/mL (≈ 105 µM)
- MIC [3, 33]: 16 µg/mL (≈ 26.2 µM)
- MIC [4]: 32 µg/mL (≈ 52.3 µM)
- MIC [11]: > 64 µg/mL
- MIC [12]: > 64 µg/mL
- MIC [5]: > 64 µg/mL
- MIC [13]: > 64 µg/mL
- MIC [6, 34]: > 64 µg/mL
- MIC [7]: > 64 µg/mL
- MIC [8]: 8 µg/mL (≈ 13.1 µM)

Molecule: COCC(=NOC(C)=O)[C@H]1OC(=O)[C@H](COC)[C@H]2C=C[C@H]3[C@H]4O[C@]2(/C(C)=C/[C@H]1C)[C@@H]3[C@H](O)[C@@H](COC)[C@H]4OC(=O)c1cc(Cl)c[nH]1 [Compound 42, 18-Acetylimino-18-deoxy-8-O-4-Chloro-1H-pyrrole-2′-carbonylbranimycin]
- MIC [1, 29]: 2 µg/mL (≈ 3.01 µM)
- MIC [2, 30]: 16 µg/mL
- MIC [2, 31]: 32 µg/mL
- MIC [2, 32]: 4 µg/mL (≈ 6.01 µM)
- MIC [3, 33]: 2 µg/mL (≈ 3.01 µM)
- MIC [4]: 2 µg/mL (≈ 3.01 µM)
- MIC [11]: > 64 µg/mL
- MIC [12]: > 64 µg/mL
- MIC [5]: > 64 µg/mL
- MIC [13]: > 64 µg/mL
- MIC [6, 34]: > 64 µg/mL
- MIC [7]: 64 µg/mL (≈ 96.2 µM)
- MIC [8]: 4 µg/mL (≈ 6.01 µM)

Molecule: CC(=O)NC[C@H]1CN(c2ccc(N3CCOCC3)c(F)c2)C(=O)O1 [Linezolid]
- Log reduction vs. untreated ([10]; Study 5, 50 mg/kg PO BID, sample time 24 h PI): −4.07
- Active [10, 22]: Y
- Active [10, 35]: Y
- Log reduction vs. untreated [10, 35]: −4.54
- Log reduction vs. untreated ([10]; Study 6, 50 mg/kg PO BID, sample time 24 h PI): −3.49
- Active [10, 36]: Y
- Log reduction vs. untreated [10, 36]: −2.98
- Active [10, 37]: Y
- Log reduction vs. untreated [10, 37]: −5.13
- Active [10, 38]: Y
- Log reduction vs. untreated [10, 38]: −2.78
- Active [10, 39]: Y
- Log reduction vs. untreated [10, 39]: −4.01
